# Columns and labels:
# ALK = target: T1, ALK (Homo sapiens, UniProt Q9UM73); test: Kinome screen, ALK; assay type: binding; conditions: screened at 1 μM
# T1 construct: made in house; host or cells: E. coli BL21-derived host (T7 phage) or HEK-293 cells
# Method: (§1) Compounds 1 and C-1 were screened against other kinases to evaluate their selectivity profile.
# (§2) Kinase-tagged T7 phage strains were grown in parallel in 24-well blocks in an E. coli host derived from the BL21 strain. E. coli were grown to log-phase and infected with T7 phage from a frozen stock (multiplicity of infection=0.4) and incubated with shaking at 32° C. until lysis (90-150 minutes). The lysates were centrifuged (6,000×g) and filtered (0.2 μm) to remove cell debris. The remaining kinases were produced in HEK-293 cells and subsequently tagged with DNA for qPCR detection.
# (§3) Streptavidin-coated magnetic beads were treated with biotinylated small molecule ligands for 30 minutes at room temperature to generate affinity resins for kinase assays. The liganded beads were blocked with excess biotin and washed with blocking buffer (SeaBlock (Pierce), 1% BSA, 0.05% Tween 20, 1 mM DTT) to remove unbound ligand and to reduce non-specific phage binding. Binding reactions were assembled by combining kinases, liganded affinity beads, and test compounds in 1× binding buffer (20% SeaBlock, 0.17×PBS, 0.05% Tween 20, 6 mM DTT). Test compounds were prepared as 40× stocks in 100% DMSO and directly diluted into the assay. All reactions were performed in polypropylene 384-well plates in a final volume of 0.04 ml. […] The kinase concentration in the eluates was measured by qPCR. […]
# AURKA = target: T2, AURKA (Homo sapiens, UniProt O14965); test: Kinome screen, AURKA; assay type: binding; conditions: screened at 1 μM
# T2 construct: made in house; host or cells: E. coli BL21-derived host (T7 phage) or HEK-293 cells
# Method: as §1, §2, §3
# CDK2 = target: T3, CDK2 (Homo sapiens, UniProt P24941); test: Kinome screen, CDK2; assay type: binding; conditions: screened at 1 μM
# T3 construct: made in house; host or cells: E. coli BL21-derived host (T7 phage) or HEK-293 cells
# Method: as §1, §2, §3
# CDK7 = target: T4, CDK7 (Homo sapiens, UniProt P50613); test: Kinome screen, CDK7; assay type: binding; conditions: screened at 1 μM
# T4 construct: made in house; host or cells: E. coli BL21-derived host (T7 phage) or HEK-293 cells
# Method: as §1, §2, §3
# CDK9 = target: T5, CDK9 (Homo sapiens, UniProt P50750); test: Kinome screen, CDK9; assay type: binding; conditions: screened at 1 μM
# T5 construct: made in house; host or cells: E. coli BL21-derived host (T7 phage) or HEK-293 cells
# Method: as §1, §2, §3
# CSF1R = target: T6, CSF1R (Homo sapiens, UniProt P07333); test: Kinome screen, CSF1R; assay type: binding; conditions: screened at 1 μM
# T6 construct: made in house; host or cells: E. coli BL21-derived host (T7 phage) or HEK-293 cells
# Method: as §1, §2, §3
# EPHB6 = target: T7, EPHB6 (Homo sapiens, UniProt O15197); test: Kinome screen, EPHB6; assay type: binding; conditions: screened at 1 μM
# T7 construct: made in house; host or cells: E. coli BL21-derived host (T7 phage) or HEK-293 cells
# Method: as §1, §2, §3
# GSK3B = target: T8, GSK3B (Homo sapiens, UniProt P49841); test: Kinome screen, GSK3B; assay type: binding; conditions: screened at 1 μM
# T8 construct: made in house; host or cells: E. coli BL21-derived host (T7 phage) or HEK-293 cells
# Method: as §1, §2, §3
# KIT = target: T9, KIT (Homo sapiens, UniProt P10721); test: Kinome screen, KIT; assay type: binding; conditions: screened at 1 μM
# T9 construct: made in house; host or cells: E. coli BL21-derived host (T7 phage) or HEK-293 cells
# Method: as §1, §2, §3
# PAK4 = target: T10, PAK4 (Homo sapiens, UniProt O96013); test: Kinome screen, PAK4; assay type: binding; conditions: screened at 1 μM
# T10 construct: made in house; host or cells: E. coli BL21-derived host (T7 phage) or HEK-293 cells
# Method: as §1, §2, §3
# PKAC-ALPHA = target: T11, PKAC-ALPHA (Homo sapiens, UniProt P17612); test: Kinome screen, PKAC-ALPHA; assay type: binding; conditions: screened at 1 μM
# T11 construct: made in house; host or cells: E. coli BL21-derived host (T7 phage) or HEK-293 cells
# Method: as §1, §2, §3
# PLK4 = target: T12, PLK4 (Homo sapiens, UniProt O00444); test: Kinome screen, PLK4; assay type: binding; conditions: screened at 1 μM
# T12 construct: made in house; host or cells: E. coli BL21-derived host (T7 phage) or HEK-293 cells
# Method: as §1, §2, §3
# SLK = target: T13, SLK (Homo sapiens, UniProt Q9H2G2); test: Kinome screen, SLK; assay type: binding; conditions: screened at 1 μM
# T13 construct: made in house; host or cells: E. coli BL21-derived host (T7 phage) or HEK-293 cells
# Method: as §1, §2, §3
# SRC = target: T14, SRC (Homo sapiens, UniProt P12931); test: Kinome screen, SRC; assay type: binding; conditions: screened at 1 μM
# T14 construct: made in house; host or cells: E. coli BL21-derived host (T7 phage) or HEK-293 cells
# Method: as §1, §2, §3
# SYK = target: T15, SYK (Homo sapiens, UniProt P43405); test: Kinome screen, SYK; assay type: binding; conditions: screened at 1 μM
# T15 construct: made in house; host or cells: E. coli BL21-derived host (T7 phage) or HEK-293 cells
# Method: as §1, §2, §3
# VEGFR2 = target: T16, VEGFR2 (Homo sapiens, UniProt P35968); test: Kinome screen, VEGFR2; assay type: binding; conditions: screened at 1 μM
# T16 construct: made in house; host or cells: E. coli BL21-derived host (T7 phage) or HEK-293 cells
# Method: as §1, §2, §3
# CSNK1D = target: T17, CSNK1D (Homo sapiens, UniProt P48730); test: Kinome screen, CSNK1D; assay type: binding; conditions: screened at 1 μM
# T17 construct: made in house; host or cells: E. coli BL21-derived host (T7 phage) or HEK-293 cells
# Method: as §1, §2, §3
# [1] = tested on: BEAS-2B human lung epithelial cells; test: CellTiter-Glo cell viability/cytotoxicity assay; assay type: cell-based; conditions: BEAS-2B cells; 48 h; 15% inhibition threshold
# Method: A CellTiter-Glo luminescent cell viability/cytotoxicity assay was carried out in BEAS-2B human lung epithelial cells (ATCC) under the normal growth condition.
# Cells were grown at 37° C. in a 5% CO2 humidified incubator in 50% DMEM/50% F-12 medium (Life Technologies) supplemented with 10% FBS (Hyclone), 100 U/mL penicillin, 100 μg/mL streptomycin (Life Technologies), and 2 mM GlutaMAX (Life Technologies). On day 1 of the assay, cells were seeded at a 500 cells/well density in white 384-well tissue culture plates (Corning) with 25 μL medium, and were allowed to adhere overnight in the incubator. On day 2 of the assay, 5 μL of medium containing dose-responses of test compounds was added, and incubated at 37° C. for 48 h. 30 μL of CellTiter-Glo detection solution (Promega) was subsequently added, mixed on an orbital shaker for 5 min, and incubated for additional 10 min before being read on the EnVision reader. Luminescence signals were recorded and percent DMSO control values were calculated.
# For dose-response analysis, percent DMSO control data were plotted vs. compound concentrations to derive dose-response curves by line connecting each data point. The concentration at which each curve crosses the 15% inhibition threshold is defined as CC15.
# T7 sequence (O15197 32-1021): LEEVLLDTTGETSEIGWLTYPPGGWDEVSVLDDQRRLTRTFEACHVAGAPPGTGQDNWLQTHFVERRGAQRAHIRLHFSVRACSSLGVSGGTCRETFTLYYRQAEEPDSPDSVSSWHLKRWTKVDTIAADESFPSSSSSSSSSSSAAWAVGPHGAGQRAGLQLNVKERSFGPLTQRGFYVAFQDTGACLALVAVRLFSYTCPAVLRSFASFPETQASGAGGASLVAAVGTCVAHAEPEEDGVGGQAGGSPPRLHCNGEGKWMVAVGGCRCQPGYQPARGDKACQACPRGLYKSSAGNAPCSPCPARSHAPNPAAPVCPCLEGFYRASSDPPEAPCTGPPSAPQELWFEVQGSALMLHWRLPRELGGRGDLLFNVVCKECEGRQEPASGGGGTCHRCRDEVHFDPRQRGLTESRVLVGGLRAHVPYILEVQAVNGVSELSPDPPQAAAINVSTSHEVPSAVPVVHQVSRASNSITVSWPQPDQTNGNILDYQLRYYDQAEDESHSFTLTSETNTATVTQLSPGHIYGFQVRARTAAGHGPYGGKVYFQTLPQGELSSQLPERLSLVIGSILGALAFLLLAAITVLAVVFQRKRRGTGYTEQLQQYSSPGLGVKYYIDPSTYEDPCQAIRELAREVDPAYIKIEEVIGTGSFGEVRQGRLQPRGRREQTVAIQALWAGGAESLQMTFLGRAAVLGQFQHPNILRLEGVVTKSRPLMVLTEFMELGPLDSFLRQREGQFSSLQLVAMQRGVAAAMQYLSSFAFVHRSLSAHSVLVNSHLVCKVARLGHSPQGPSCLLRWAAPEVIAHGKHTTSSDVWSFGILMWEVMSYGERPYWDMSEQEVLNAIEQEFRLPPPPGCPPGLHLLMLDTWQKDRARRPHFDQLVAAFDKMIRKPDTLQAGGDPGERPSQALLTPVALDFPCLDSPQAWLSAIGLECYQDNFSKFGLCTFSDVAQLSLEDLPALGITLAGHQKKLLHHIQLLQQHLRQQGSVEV
# T4 sequence (P50613 whole entry): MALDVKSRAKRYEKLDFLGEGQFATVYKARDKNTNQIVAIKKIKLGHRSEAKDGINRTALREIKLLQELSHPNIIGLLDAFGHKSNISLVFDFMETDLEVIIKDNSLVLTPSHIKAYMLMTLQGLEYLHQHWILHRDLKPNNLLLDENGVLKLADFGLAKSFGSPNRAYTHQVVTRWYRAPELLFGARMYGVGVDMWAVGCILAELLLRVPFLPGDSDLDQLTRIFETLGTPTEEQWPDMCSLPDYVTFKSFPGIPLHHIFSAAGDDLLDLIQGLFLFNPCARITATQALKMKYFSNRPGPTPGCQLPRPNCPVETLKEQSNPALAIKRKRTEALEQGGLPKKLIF
# T12 sequence (O00444 whole entry): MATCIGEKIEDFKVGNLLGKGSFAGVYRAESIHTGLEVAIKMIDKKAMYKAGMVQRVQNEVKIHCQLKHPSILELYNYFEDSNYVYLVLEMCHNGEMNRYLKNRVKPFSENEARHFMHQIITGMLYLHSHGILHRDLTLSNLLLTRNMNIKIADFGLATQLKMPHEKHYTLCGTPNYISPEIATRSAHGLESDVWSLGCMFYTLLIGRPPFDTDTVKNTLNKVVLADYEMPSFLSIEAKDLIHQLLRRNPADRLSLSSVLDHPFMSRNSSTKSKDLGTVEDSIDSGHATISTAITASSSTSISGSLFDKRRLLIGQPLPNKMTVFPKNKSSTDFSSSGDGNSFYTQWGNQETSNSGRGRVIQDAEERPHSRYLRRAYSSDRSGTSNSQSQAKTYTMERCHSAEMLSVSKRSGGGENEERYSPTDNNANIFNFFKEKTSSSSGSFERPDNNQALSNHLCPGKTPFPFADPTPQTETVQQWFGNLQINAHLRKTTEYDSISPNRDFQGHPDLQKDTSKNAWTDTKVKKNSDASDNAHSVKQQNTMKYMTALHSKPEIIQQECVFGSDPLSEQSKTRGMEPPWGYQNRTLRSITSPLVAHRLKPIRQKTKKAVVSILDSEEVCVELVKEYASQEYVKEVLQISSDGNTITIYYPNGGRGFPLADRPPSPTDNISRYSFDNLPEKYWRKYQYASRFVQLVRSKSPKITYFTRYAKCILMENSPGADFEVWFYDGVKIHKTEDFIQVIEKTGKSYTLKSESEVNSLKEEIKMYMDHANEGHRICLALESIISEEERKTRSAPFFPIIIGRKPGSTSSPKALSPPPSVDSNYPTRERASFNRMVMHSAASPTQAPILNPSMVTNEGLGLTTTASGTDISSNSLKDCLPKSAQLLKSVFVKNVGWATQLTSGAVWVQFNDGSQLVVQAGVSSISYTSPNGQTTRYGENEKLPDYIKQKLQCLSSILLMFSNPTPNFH
# T16 sequence (P35968 20-1356): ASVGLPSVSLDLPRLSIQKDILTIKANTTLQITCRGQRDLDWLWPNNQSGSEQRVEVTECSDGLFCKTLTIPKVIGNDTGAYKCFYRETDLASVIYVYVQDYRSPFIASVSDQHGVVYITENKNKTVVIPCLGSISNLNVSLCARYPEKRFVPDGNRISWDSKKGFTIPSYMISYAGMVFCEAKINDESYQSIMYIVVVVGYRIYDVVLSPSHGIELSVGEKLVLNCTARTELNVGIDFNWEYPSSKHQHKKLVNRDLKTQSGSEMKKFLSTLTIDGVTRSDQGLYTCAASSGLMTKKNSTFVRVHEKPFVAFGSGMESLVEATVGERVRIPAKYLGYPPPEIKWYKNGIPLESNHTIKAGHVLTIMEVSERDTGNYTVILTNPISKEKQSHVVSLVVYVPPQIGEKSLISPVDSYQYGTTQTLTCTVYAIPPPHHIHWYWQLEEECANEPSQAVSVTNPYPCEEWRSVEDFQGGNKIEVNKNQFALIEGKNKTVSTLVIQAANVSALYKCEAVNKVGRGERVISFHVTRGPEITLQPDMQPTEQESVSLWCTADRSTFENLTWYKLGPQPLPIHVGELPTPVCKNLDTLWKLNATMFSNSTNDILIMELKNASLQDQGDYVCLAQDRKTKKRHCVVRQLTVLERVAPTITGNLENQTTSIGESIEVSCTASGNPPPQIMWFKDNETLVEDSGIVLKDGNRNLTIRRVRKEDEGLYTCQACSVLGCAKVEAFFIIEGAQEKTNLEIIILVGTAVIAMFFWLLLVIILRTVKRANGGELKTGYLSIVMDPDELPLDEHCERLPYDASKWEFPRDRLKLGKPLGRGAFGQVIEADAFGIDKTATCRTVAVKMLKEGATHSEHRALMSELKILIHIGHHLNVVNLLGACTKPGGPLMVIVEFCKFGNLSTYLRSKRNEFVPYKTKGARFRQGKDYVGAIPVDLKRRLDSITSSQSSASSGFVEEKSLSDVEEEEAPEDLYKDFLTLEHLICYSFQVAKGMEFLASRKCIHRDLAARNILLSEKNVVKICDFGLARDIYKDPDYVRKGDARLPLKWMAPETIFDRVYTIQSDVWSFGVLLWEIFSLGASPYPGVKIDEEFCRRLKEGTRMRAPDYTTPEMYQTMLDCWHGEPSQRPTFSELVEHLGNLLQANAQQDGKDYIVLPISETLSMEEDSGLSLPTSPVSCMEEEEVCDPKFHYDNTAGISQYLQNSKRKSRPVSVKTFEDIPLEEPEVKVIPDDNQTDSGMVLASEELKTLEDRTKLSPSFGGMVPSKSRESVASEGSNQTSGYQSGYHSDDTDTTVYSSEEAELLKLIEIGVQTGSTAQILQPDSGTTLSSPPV
# T6 sequence (P07333 20-972): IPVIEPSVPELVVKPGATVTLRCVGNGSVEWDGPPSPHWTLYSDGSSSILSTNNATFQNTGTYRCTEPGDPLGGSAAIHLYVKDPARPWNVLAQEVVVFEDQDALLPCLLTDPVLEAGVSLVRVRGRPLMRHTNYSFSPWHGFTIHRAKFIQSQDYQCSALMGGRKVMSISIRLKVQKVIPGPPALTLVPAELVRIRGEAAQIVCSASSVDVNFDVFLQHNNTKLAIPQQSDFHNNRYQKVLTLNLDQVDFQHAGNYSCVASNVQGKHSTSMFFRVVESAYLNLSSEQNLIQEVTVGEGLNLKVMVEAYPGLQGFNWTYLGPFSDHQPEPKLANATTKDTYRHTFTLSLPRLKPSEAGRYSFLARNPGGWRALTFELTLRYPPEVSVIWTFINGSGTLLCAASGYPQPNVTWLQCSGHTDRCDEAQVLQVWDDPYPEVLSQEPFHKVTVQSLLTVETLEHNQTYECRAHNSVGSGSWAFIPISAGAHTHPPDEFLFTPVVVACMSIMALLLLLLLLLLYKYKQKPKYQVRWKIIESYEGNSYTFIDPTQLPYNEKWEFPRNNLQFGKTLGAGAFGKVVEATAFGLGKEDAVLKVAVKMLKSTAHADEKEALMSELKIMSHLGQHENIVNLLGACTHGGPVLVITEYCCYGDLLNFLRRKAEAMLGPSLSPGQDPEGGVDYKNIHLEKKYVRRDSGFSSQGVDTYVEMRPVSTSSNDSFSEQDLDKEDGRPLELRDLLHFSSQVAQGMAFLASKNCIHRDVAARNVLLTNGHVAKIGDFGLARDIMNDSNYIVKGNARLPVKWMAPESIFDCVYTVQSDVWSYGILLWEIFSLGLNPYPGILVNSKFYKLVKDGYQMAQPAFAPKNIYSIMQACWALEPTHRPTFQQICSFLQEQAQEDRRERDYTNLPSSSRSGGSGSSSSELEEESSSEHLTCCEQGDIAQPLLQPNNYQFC
# T2 sequence (O14965 whole entry): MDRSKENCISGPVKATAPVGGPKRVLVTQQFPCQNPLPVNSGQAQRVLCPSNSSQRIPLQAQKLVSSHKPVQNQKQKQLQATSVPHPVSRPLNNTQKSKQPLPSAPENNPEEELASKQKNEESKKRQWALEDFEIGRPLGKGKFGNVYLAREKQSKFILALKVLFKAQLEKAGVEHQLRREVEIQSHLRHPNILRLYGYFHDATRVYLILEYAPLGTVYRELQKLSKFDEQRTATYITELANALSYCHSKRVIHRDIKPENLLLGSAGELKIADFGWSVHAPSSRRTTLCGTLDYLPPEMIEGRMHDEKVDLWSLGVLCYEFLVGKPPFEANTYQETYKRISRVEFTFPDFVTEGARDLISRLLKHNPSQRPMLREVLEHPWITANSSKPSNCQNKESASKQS
smiles,measurement,setting,value
"CCc1cc(O)c(F)cc1-c1ccc2c(-c3nc4c([nH]3)CCN(C(=O)[C@]35C[C@H]3CCN5)C4)n[nH]c2c1 [Compound C-1, ((1S,5R)-2-azabicyclo[3.1.0]hexan-1-yl)(2-(6-(2-ethyl-5-fluoro-4-hydroxyphenyl)-1H-indazol-3-yl)-1,4,6,7-tetrahydro-5H-imidazo[4,5-c]pyridin-5-yl)methanone, reference compound]",inhibition at 1 µM,ALK,87%
same,inhibition at 1 µM,AURKA,54%
same,inhibition at 1 µM,CDK2,50%
same,inhibition at 1 µM,CDK7,98.8%
same,inhibition at 1 µM,CDK9,89%
same,inhibition at 1 µM,CSF1R,100%
same,inhibition at 1 µM,EPHB6,96.5%
same,inhibition at 1 µM,GSK3B,52%
same,inhibition at 1 µM,KIT,98.5%
same,inhibition at 1 µM,PAK4,89%
same,inhibition at 1 µM,PKAC-ALPHA,55%
same,inhibition at 1 µM,PLK4,40%
same,inhibition at 1 µM,SLK,99.9%
same,inhibition at 1 µM,SRC,98.9%
same,inhibition at 1 µM,SYK,82%
same,inhibition at 1 µM,VEGFR2,59%
same,inhibition at 1 µM,CSNK1D,66%
same,CC15,[1],1580 nM
same,pCC15,[1],5.8
